Measurements published in ChEMBL document CHEMBL1149881, “Syntheses of 4,6'-epoxymorphinan derivatives and their pharmacologies” (Bioorg Med Chem, 2008).
Activity calls are given as the source filed them. The calls are words filed in the database; no cut-off is given here.

How the values were obtained:
[1] = molecular target: Delta-type opioid receptor (Mus musculus) (UniProt P32300); experiment: Inhibition of delta opioid receptor-mediated SNC80 induced activation of G-Protein in ICR mouse brain at 0.1 to 1 uM by [35S]GTPgammaS binding; assay type: functional, tissue-based
Chain of Delta-type opioid receptor (Mus musculus) (P32300 whole entry): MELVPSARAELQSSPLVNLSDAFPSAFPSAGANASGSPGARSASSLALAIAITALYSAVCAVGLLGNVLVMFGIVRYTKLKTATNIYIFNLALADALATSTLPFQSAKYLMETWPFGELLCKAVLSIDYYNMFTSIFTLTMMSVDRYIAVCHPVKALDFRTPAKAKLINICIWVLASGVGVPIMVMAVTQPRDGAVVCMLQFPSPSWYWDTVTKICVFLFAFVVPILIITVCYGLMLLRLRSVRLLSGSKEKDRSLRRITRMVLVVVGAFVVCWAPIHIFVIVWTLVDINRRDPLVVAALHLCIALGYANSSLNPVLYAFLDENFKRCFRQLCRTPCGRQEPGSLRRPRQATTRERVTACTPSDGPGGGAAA

[2] = molecular target: Kappa-type opioid receptor (Cavia porcellus) (UniProt P41144); experiment: Inhibition of kappa opioid receptor-mediated U50488 induced activation of G-Protein in guinea pig cerebellum at 0.1 to 1 uM by [35S]GTPgammaS binding; assay type: functional, tissue-based
Chain of Kappa-type opioid receptor (Cavia porcellus) (P41144 whole entry): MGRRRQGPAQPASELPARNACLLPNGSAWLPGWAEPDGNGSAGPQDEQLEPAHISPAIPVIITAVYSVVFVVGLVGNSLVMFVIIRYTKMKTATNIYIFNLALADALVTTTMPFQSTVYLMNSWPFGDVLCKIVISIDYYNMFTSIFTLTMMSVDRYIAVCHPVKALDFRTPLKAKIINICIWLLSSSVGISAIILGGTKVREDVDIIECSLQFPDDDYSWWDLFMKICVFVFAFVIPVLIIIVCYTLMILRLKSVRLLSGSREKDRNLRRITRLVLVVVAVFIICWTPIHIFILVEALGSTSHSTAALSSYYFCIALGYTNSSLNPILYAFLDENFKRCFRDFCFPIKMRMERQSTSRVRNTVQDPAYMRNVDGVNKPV

Mu-type opioid receptor = Mu-type opioid receptor (Mus musculus, UniProt P42866); experiment: Displacement of [3H]DAMGO from mu opioid receptor in ICR mouse whole brain
Chain of Mu-type opioid receptor (P42866 whole entry): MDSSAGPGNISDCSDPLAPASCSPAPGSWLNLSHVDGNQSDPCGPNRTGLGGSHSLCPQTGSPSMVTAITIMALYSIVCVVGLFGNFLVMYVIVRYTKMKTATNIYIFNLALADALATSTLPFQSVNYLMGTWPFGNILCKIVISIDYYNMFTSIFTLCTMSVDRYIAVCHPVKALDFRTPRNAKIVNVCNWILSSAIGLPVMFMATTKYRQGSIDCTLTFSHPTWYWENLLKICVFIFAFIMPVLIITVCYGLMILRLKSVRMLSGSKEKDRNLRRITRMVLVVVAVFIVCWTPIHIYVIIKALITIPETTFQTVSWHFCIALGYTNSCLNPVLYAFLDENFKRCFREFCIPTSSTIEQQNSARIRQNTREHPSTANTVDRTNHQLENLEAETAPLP

[3] = molecular target: Mu-type opioid receptor (Mus musculus) (UniProt P42866); experiment: Inhibition of mu opioid receptor-mediated DAMGO induced activation of G-Protein in ICR mouse brain at 0.1 to 1 uM by [35S]GTPgammaS binding; assay type: functional
Chain of Mu-type opioid receptor (Mus musculus) (P42866 whole entry): as above

[4] = molecular target: Delta-type opioid receptor (Mus musculus, UniProt P32300); experiment: Displacement of [3H]DPDPE from delta opioid receptor in ICR mouse whole brain
Chain of Delta-type opioid receptor (P32300 whole entry): as the sequence (P32300 whole entry) above

[5] = molecular target: Kappa-type opioid receptor (Cavia porcellus, UniProt P41144); experiment: Displacement of [3H]U69593 from kappa opioid receptor in guinea pig cerebellum
Chain of Kappa-type opioid receptor (P41144 whole entry): as the sequence (P41144 whole entry) above

Mus musculus [6] = experiment: Antinociceptive activity against sc dosed ICR mouse by tail flick method; assay type: functional, organism-based
Mus musculus [7] = experiment: Antinociceptive activity against sc dosed ICR mouse by hot plate method; assay type: functional, organism-based
[8] = molecular target: Mu-type opioid receptor (Mus musculus) (UniProt P42866); experiment: Activation of mu opioid receptor-mediated G-protein activation in ICR mouse whole brain at 10 uM by [35S]GTPgammaS binding in presence of Beta-FNA; assay type: functional

Row | SMILES | Activity [1] | Activity [2] | IC50 (Mu-type opioid receptor) [nM] | Activity [3] | IC50 [4] [nM] | IC50 [5] [nM] | Activity (Mus musculus [6]) | Activity (Mus musculus [7]) | Activity [8]
1 | Oc1ccc2c3c1OC[C@H]1CC[C@]4(O)[C@H](C2)N(CC2CC2)CC[C@@]34C1 | Active | Active | 1.21 | Active | 57.3 | 0.98 | – | – | –
2 | COc1ccc2c3c1OC[C@H]1CC[C@]4(O)[C@H](C2)N(C)CC[C@@]34C1 | – | – | 183 | Active | < 500 | < 500 | Dose-dependent effect | Dose-dependent effect | inactive
